Where “and” joins values, the source holds several entries; their conditions need not be identical. Identical values can stand only once.
molecular target: Coagulation factor X (Homo sapiens, UniProt P00742); test: Inhibition Assay
Sequence (P00742 41-179 limits assumed): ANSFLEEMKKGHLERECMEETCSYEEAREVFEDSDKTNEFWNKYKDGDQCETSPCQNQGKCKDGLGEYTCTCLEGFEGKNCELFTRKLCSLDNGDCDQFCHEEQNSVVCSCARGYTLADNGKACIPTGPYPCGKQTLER
Sequence (P00742 235-488 limits assumed): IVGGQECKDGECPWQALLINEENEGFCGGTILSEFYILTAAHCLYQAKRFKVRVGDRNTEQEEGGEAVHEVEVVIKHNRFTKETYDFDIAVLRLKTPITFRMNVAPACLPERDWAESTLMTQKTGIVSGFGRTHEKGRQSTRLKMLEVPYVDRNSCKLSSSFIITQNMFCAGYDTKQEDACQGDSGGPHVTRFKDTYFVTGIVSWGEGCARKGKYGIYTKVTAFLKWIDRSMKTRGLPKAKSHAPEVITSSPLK

| Compound | IC50 |
| --- | --- |
| NS(=O)(=O)c1ccccc1-c1ccc(NC(=O)C2CCCN2C(=O)Nc2ccc(Cl)c(Cl)c2)c(F)c1 (stereo not drawn) [P1 Phenyl Ring, 29] | > 4000 nM |
| NS(=O)(=O)c1ccccc1-c1ccc(NC(=O)C2CCCN2C(=O)Nc2ccc(Br)cc2)c(F)c1 (stereo not drawn) [P1 Phenyl Ring, 22] | 33 nM |
| NS(=O)(=O)c1ccccc1-c1ccc(NC(=O)C2CCCN2C(=O)Nc2ccc(C(F)(F)F)cc2)c(F)c1 (stereo not drawn) [P1 Phenyl Ring, 31] | > 4000 nM |
| NS(=O)(=O)c1ccccc1-c1ccc(NC(=O)C2CCCN2C(=O)Nc2ccccc2)c(F)c1 (stereo not drawn) [P1 Phenyl Ring, 27] | 951 nM |
| CS(=O)(=O)c1ccccc1-c1ccc(NC(=O)[C@H]2CC(F)CN2C(=O)Nc2ccc(Cl)cc2)c(F)c1 (stereo partly drawn) [4-Substituted Pyrrolidine Ring, 17] | 7 nM and 1.2 nM |
| CS(=O)(=O)c1ccccc1-c1ccc(NC(=O)[C@H]2CC(O)CN2C(=O)Nc2ccc(F)cc2)c(F)c1 (stereo partly drawn) [4-Substituted Pyrrolidine Ring, 36] | 7.6 nM |
| NS(=O)(=O)c1ccccc1-c1ccc(NC(=O)C2CCCN2C(=O)Nc2cccc(Cl)c2)c(F)c1 (stereo not drawn) [P1 Phenyl Ring, 28] | > 4000 nM |
| COC1C[C@H](C(=O)Nc2ccc(-c3ccccc3S(C)(=O)=O)cc2F)N(C(=O)Nc2ccc(Cl)cn2)C1 (stereo partly drawn) [4-Substituted Pyrrolidine Ring, 35] | 1 nM |
| CS(=O)(=O)c1ccccc1-c1ccc(NC(=O)[C@H]2CC(F)(F)CN2C(=O)Nc2ccc(Cl)cc2)c(F)c1 [4-Substituted Pyrrolidine Ring, 21] | 5 nM |
| Cc1ccc(NC(=O)N2CCCC2C(=O)Nc2ccc(-c3ccccc3S(N)(=O)=O)cc2F)cc1F (stereo not drawn) [P1 Phenyl Ring, 25] | 516 nM |
| CS(=O)(=O)c1ccccc1-c1ccc(NC(=O)[C@H]2CC(O)CN2C(=O)Nc2ccc(Cl)cn2)c(F)c1 (stereo partly drawn) [4-Substituted Pyrrolidine Ring, 34] | 4.3 nM |
| CCc1ccc(NC(=O)N2CCCC2C(=O)Nc2ccc(-c3ccccc3S(N)(=O)=O)cc2F)cc1 (stereo not drawn) [P1 Phenyl Ring, 30] | > 4000 nM |
| Cc1ccc(NC(=O)N2CCCC2C(=O)Nc2ccc(-c3ccccc3S(N)(=O)=O)cc2F)cc1 (stereo not drawn) [P1 Phenyl Ring, 24] | 389 nM |
| CS(=O)(=O)c1ccccc1-c1ccc(NC(=O)[C@H]2CC(=O)CN2C(=O)Nc2ccc(Cl)cc2)c(F)c1 [4-Substituted Pyrrolidine Ring, 20] | 2.9 nM |
| NS(=O)(=O)c1ccccc1-c1ccc(NC(=O)[C@H]2CC(O)CN2C(=O)Nc2ccc(Cl)cc2)c(F)c1 (stereo partly drawn) [4-Substituted Pyrrolidine Ring, 14] | 0.75 nM |
| COc1ccc(NC(=O)N2CCCC2C(=O)Nc2ccc(-c3ccccc3S(N)(=O)=O)cc2F)cc1 (stereo not drawn) [P1 Phenyl Ring, 26] | 873 nM |
| NS(=O)(=O)c1ccccc1-c1ccc(NC(=O)C2CCCN2C(=O)Nc2ccccc2F)c(F)c1 (stereo not drawn) [P1 Phenyl Ring, 33] | > 4000 nM |
| COc1cccc(NC(=O)N2CCCC2C(=O)Nc2ccc(-c3ccccc3S(N)(=O)=O)cc2F)c1 (stereo not drawn) [P1 Phenyl Ring, 32] | > 4000 nM |

From BindingDB's records for doi:10.1111/j.1747-0285.2007.00520.x (Pfizer, 2007)
